Reference: paper PMC12133000 (PLOS One, 2025)
Where two headings read alike, the source gives them in different places. Values belong to the compound of their own block, whether it stands above or below them.

Columns and labels:
CYP3A4 = details: in vitro ref 25; cited from earlier work
CYP2J2 = details: cited from earlier work; for inhibition of rivaroxaban hydroxylation by CYP2J2: in vitro ref 24
[1] = combination with TKI ref 25; cited from earlier work
[2] = tested on: rat liver microsomes (RLMs); assay: EGFR TKI screening: rivaroxaban metabolite M-2 formation in RLM incubation; type: in vitro ADME
Method: The system was preincubated at 37 °C for 5 min, followed by the addition of NADPH (1 mM) to initiate the reaction. After incubating for an additional 30 min, a 200 μL of acetonitrile solution containing 200 ng/mL midazolam was introduced. The mixture was vortexed for 30 s, centrifuged at 13000 rpm for 5 min, and the supernatant was removed. Three samples were collected for each group.

[3] = target: rat liver microsomes (RLMs); assay: Inhibitory mechanism (Ki, αKi, Lineweaver-Burk plots) in RLMs; details: read-out: inhibitory constant (Ki), substrate rivaroxaban
From the text: Ki and αKi values were computed, and the inhibitory mechanism was examined using Lineweaver–Burk plots.

P-gp = tested on: P-gp; set-up: method as in PMID 35174529; details: in vitro, combination with rivaroxaban ref 21; read-out: IC50 (inhibitory properties of TKIs on DOACs, P-gp mediated); cited from earlier work
[4] = patients on rivaroxaban, combination with clarithromycin ref 33; cited from earlier work

Structure (SMILES): COc1cc2ncnc(Nc3ccc(F)c(Cl)c3)c2cc1OCCCN1CCOCC1 [gefitinib, Gefitinib]
- inhibition of CYP3A4-mediated rivaroxaban metabolism (CYP3A4): potently inhibited

Structure (SMILES): C=CC(=O)Nc1cc(Nc2nccc(-c3cn(C)c4ccccc34)n2)c(OC)cc1N(C)CCN(C)C [osimertinib]
- inhibition pattern with rivaroxaban as probe substrate (CYP2J2): competitive inhibition
- inhibition of rivaroxaban hydroxylation by CYP2J2 (CYP2J2): concentration-dependent inhibition

Structure (SMILES): Cc1ccc(NC(=O)c2ccc(CN3CCN(C)CC3)cc2)cc1Nc1nccc(-c2cccnc2)n1 [imatinib]
- increase of rivaroxaban AUC [1]: 119.96%
- increase of rivaroxaban Cmax [1]: 90.43%

Structure (SMILES): COc1cc2ncnc(Nc3ccc(F)c(Cl)c3)c2cc1NC(=O)/C=C/CN1CCCCC1 [dacomitinib]
- effect on rivaroxaban metabolism (metabolite generation rate vs control) ([2]; 100 μM EGFR TKI, RLMs): significantly inhibited

Structure (SMILES): CCOc1cc2ncc(C#N)c(Nc3ccc(OCc4ccccn4)c(Cl)c3)c2cc1NC(=O)/C=C/CN(C)C [neratinib]
- effect on rivaroxaban metabolism (metabolite generation rate vs control) [2]: significantly inhibited

- Ki [3]: 3.24 µM
Structure (SMILES): C=CC(=O)Nc1cccc(Oc2nc(Nc3ccc(N4CCN(C)CC4)c(F)c3)nc3[nH]ccc23)c1 [avitinib, Avitinib]
- ratio of the metabolite concentration relative to the control ([2]; 100 μM EGFR TKI, 0.5 mg/mL RLMs, rivaroxaban metabolite M-2, average): 5.6%
- effect on rivaroxaban metabolism (metabolite generation rate vs control) ([2]; 100 μM EGFR TKI, RLMs): significantly inhibited
- inhibition pattern with rivaroxaban as probe substrate (CYP2J2): atypical inhibitory kinetics
- inhibition of rivaroxaban hydroxylation by CYP2J2 (CYP2J2): concentration-dependent inhibition

Structure (SMILES): CS(=O)(=O)CCNCc1ccc(-c2ccc3ncnc(Nc4ccc(OCc5cccc(F)c5)c(Cl)c4)c3c2)o1 [lapatinib]
- effect on rivaroxaban metabolism (metabolite generation rate vs control) [2]: significantly inhibited

Structure (SMILES): C#Cc1cccc(Nc2ncnc3cc(OCCOC)c(OCCOC)cc23)c1 [erlotinib]
- IC50 (P-gp): < 10 µM

Structure (SMILES): CC[C@H]1OC(=O)[C@H](C)[C@@H](O[C@H]2C[C@@](C)(OC)[C@@H](O)[C@H](C)O2)[C@H](C)[C@@H](O[C@@H]2O[C@H](C)C[C@H](N(C)C)[C@H]2O)[C@](C)(OC)C[C@@H](C)C(=O)[C@H](C)[C@@H](O)[C@]1(C)O [clarithromycin]
- increase in the AUC value for rivaroxaban [4]: two-fold increase

Structure (SMILES): CCN(CC)CCNC(=O)c1c(C)[nH]c(/C=C2\C(=O)Nc3ccc(F)cc32)c1C [sunitinib]
- reduction in exposure to rivaroxaban in vivo [1]: 62.32%
